Values after ≈ are worked out from the molar mass of the structure shown.
Conditions: buffer; pH 7.4; 200.0 µM

Row | Compound | solubility kinetic [µg/mL]
1 | COc1ccc(-n2ccnc2)cc1 | > 26.1
2 | CCC(CC)COC(=O)C1=C(C)NC(=O)NC1c1ccc(OC)cc1 (stereo not given) | 3 (≈ 8.66 µM)
3 | COc1ccc(Oc2ncccc2[N+](=O)[O-])cc1 | > 36.9
4 | O=C(NCCCn1ccnc1)c1cc2ccccc2o1 | > 40.4
5 | CCOC(=O)/C=C1\SCC(=O)N1CC(=O)Nc1cc(S(=O)(=O)N(C)C)ccc1C | 26.2 (≈ 59.3 µM)
6 | O=S(=O)(c1ccccc1)c1nc(-c2ccco2)oc1N1CCCCC1 | 16.1 (≈ 44.9 µM)
7 | COc1ccccc1CNC(=O)CCNC(=O)c1ccco1 | > 45.3
8 | COc1ccccc1CNC(=O)/C=C/C(=O)O | > 35.3
9 | Nc1cc(=O)[nH]c(SCCSc2ccc(F)cc2)n1 | 6.2 (≈ 20.8 µM)
10 | CC(=O)C1=C(C)NC(=S)NC1c1cccc([N+](=O)[O-])c1 (stereo not given) | 3.5 (≈ 12 µM)
11 | CC(OC(=O)COc1ccccc1)C(=O)NC1CCCC1 (stereo not given) | > 43.7
12 | N#CCCN=C(NS(=O)(=O)c1ccccc1)c1ccccc1 | > 47
13 | C=CCn1c(=O)c2ccccc2n2c(SCC(=O)O)nnc12 | > 47.4
14 | COc1ccccc1CNC(=O)C(c1ccccc1)c1ccccc1 | < 0.7
15 | O=C(COC(=O)C1C2CC3OC(=O)C1C3C2)Nc1ccc(F)cc1 (stereo not given) | > 50
16 | COCC(=O)N1CCN(c2nc3ccccc3o2)CC1 | > 41.3
17 | COc1ccc(S(=O)(=O)N2CCN(Cc3cccs3)CC2)cc1OC | 55.7 (≈ 146 µM)
18 | CC1=C([N+](=O)[O-])C(c2ccccc2Cl)NC(=O)N1 (stereo not given) | > 40.2
19 | Cc1cc(C)c2c(-c3ccc(F)cc3)c(C#N)c(=O)n(C)c2n1 | 0.6 (≈ 1.95 µM)
20 | C[C@@H](C(=O)NC1CCCC1)N1C(=O)N2CCc3c([nH]c4ccccc34)[C@@]2(C)C1=O | 48.7 (≈ 123 µM)
21 | NCCc1c(Cc2ccccc2)[nH]c2ccccc12 | 34.5 (≈ 138 µM)
22 | COC(=O)c1sccc1NC(=O)Nc1ccc(C(C)=O)cc1 | 8.4 (≈ 26.4 µM)
23 | CCN(CC)c1ncc(C#N)c(N)n1 | 25.6 (≈ 134 µM)
24 | Cc1ccc(N(Cc2ccccc2)C(=O)c2ccc(F)cc2)cc1 | 9.1 (≈ 28.5 µM)

Row | Compound | solubility kinetic [µg/mL]
25 | COc1ccc(OCCCCn2c(CO)nc3ccccc32)cc1 | 45.4 (≈ 139 µM)
26 | O=C(O)c1nn(-c2ccccc2C(F)(F)F)cc1O | > 40.8
27 | O=C(O)CSc1nc2sc3c(c2c(=O)n1-c1ccccc1)CCC3 | > 53.8
28 | O=C(COC(=O)CSc1ccc(Cl)cc1)Nc1ccccc1 | > 50.4
29 | COC(=O)[C@H](Cc1ccccc1)NC(=O)Nc1ccc(OC)cc1 | 47 (≈ 143 µM)
30 | Cc1ccccc1N1C(=O)c2cccc3cccc(c23)C1=O | 2.5 (≈ 8.7 µM)
31 | O=C(NC(=S)NCc1ccco1)c1ccc([N+](=O)[O-])cc1 | 4.6 (≈ 15.1 µM)
32 | Cc1ccc(S(=O)(=O)NC(=O)Nc2cc(C(C)(C)C)on2)cc1 | > 50.6
33 | COC(=O)[C@H](Cc1ccccc1)NC(=O)NCCc1ccc(F)cc1 | > 51.7
34 | O=C(Nc1cccc(S(=O)(=O)NC2=NCCC2)c1)c1ccccc1 | > 51.5
35 | COCCn1c(N)c(Sc2ccc(Cl)cc2)c(=O)[nH]c1=O | 47.4 (≈ 145 µM)
36 | O=C(O)Cn1cc(C=C2C(=O)NC(=O)NC2=O)c2ccccc21 | > 47
37 | CCn1c(NC(=O)C(C)C)c2ccccc2nc1=O | > 38.9
38 | COc1ccc(NC(=O)COC(=O)c2cc(S(=O)(=O)N3CCCC3)ccc2O)cc1 | > 65.2
39 | O=C(O)CC(NC(=O)C1CCCCC1)c1ccc(OC2CCCC2)cc1 (stereo not given) | 53.4 (≈ 149 µM)
40 | CCCNC(=O)CSc1nccn1Cc1ccco1 | > 41.9
41 | O=C(Nc1ccccc1)Nc1nc(-c2ccc(F)c(F)c2)cs1 | < 0.2
42 | CN1C(=O)C(O)N=C(c2ccccc2)c2ccccc21 (stereo not given) | > 39.9
43 | CCN(C(=O)C1=COCCO1)c1nc2c(C)cccc2s1 | 7.5 (≈ 24.6 µM)
44 | COc1cc(OC)cc(C(=O)N[C@H](C(=O)OCC(=O)c2c[nH]c3ccccc23)C(C)C)c1 | 3.8 (≈ 8.67 µM)
45 | COc1ccccc1Cn1c(C)nc2ccccc21 | 37 (≈ 147 µM)
46 | Cc1ccc(CNC(=O)CNC(=O)c2ccc(Br)o2)cc1 | 14.6 (≈ 41.6 µM)
47 | Cc1cc(NC(=O)c2ccco2)c(=O)n(Cc2cccc(C(F)(F)F)c2)c1 | < 0.4
48 | Cc1cccc(C(=O)O/N=C(\N)c2ccc(Cl)cc2)c1 | < 0.3

Row | Compound | solubility kinetic [µg/mL]
49 | CC(=O)Nc1ccc(S(=O)(=O)Nc2nc(C)nc3sc(C)c(C)c23)cc1 | > 58.6
50 | COc1cc(SC)ccc1C(=O)OCC(=O)NCC(C)C | > 46.7
51 | c1ccc(Nc2nc(-c3ccccc3)ns2)cc1 | < 0.2
52 | CCCc1nnc(SCC(=O)Nc2nccs2)o1 | > 42.7
53 | O=C(CC1SC(N2CCCCC2)=NC1=O)Nc1ccc(C(=O)NCc2ccccc2)cc1 (stereo not given) | 61.3 (≈ 136 µM)
54 | CSc1ncccc1C(=O)OCC(=O)N1CCCC1 | > 42.1
55 | Cc1cccc(C)c1OCCN1C(=O)NC(C)(c2ccccc2)C1=O (stereo not given) | 5 (≈ 14.8 µM)
56 | Cc1csc(NC(=O)CN2C(=O)COc3ccc(Cl)cc32)n1 | 2.1 (≈ 6.22 µM)
57 | COc1cccc(OC)c1C(=O)Nc1nc(-c2ccccc2)cs1 | 1.6 (≈ 4.7 µM)
58 | O=C(Nc1cc(Cl)ccn1)C1(c2ccccc2)CC1(Cl)Cl (stereo not given) | < 0.4
59 | CSc1nc2nc3c(cc2c(=O)n1-c1ccccc1C)CCCC3 | 37.9 (≈ 112 µM)
60 | CC(N)C12CC3CC(CC(C3)C1)C2.Cl (stereo not given) | > 32.4
61 | CC1CCN(c2ccc(C=O)o2)CC1 | > 29
62 | O=C(Cc1ccccc1)O/N=C1\CCCc2ccccc21 | 17.1 (≈ 61.2 µM)
63 | O=C(Nc1ccccc1F)C1CCCC1 | 23.4 (≈ 113 µM)
64 | CS(=O)(=O)O.c1cnc(N2CCN(Cc3ccc4c(c3)OCO4)CC2)nc1 | > 59.2
65 | COc1ccc(NC(=S)NC(=O)/C=C/c2ccco2)cc1 | 1.2 (≈ 3.97 µM)
66 | Cc1onc(-c2ccccc2)c1C(=O)NCCSCc1ccco1 | > 51.4
67 | CCc1ccc(S(=O)(=O)Nc2ccc(Br)cn2)cc1 | 18.1 (≈ 53 µM)
68 | Nc1ccc(C(=O)[O-])cc1.O.[Na+] | > 26.6
69 | CC1CC(C)CN(C(=O)COC(=O)CCC(=O)c2cccs2)C1 (stereo not given) | > 50.6
70 | O=S1(=O)N=C(N2CCCC2)c2ccccc21 | 31.4 (≈ 133 µM)
71 | O=C(CCC(=O)N1CCCCCC1)NCc1ccc(F)cc1 | > 46
72 | COc1cc2c(cc1OC)-c1cc(Nc3cccc(C)c3)nc(=O)n1CC2 | 2.5 (≈ 6.88 µM)

Row | Compound | solubility kinetic [µg/mL]
73 | O=[N+]([O-])c1cc(C(F)(F)F)ccc1NCCc1ccccn1 | 18.8 (≈ 60.4 µM)
74 | CCc1cc2cc(C)cc(C)c2nc1Cl | < 0.5
75 | CCc1cccc(CC)c1N(COC)C(=O)Cn1cnc2ccccc21 | > 52.7
76 | O=C(Nc1ccccc1Cc1ccccc1)c1ccccc1F | 3.1 (≈ 10.2 µM)
77 | O=C(Nc1ccccc1F)Nc1cccnc1Cl | 7.8 (≈ 29.4 µM)
78 | COCCN(C)Cc1nc(C(c2ccccc2)c2ccccc2)no1 | 37.7 (≈ 112 µM)
79 | Nc1ccccc1C(=O)Nc1cccc2ccccc12 | 24.7 (≈ 94.2 µM)
80 | O=C(NC1=NCCS1)c1cc(Cl)ccc1Cl | 37.1 (≈ 135 µM)
81 | Cc1ccc(C(=O)OC(C)C(=O)NC2CCCCC2C)s1 (stereo not given) | 14.6 (≈ 47.2 µM)
82 | CCC(C(=O)NCc1cccnc1)c1ccccc1 (stereo not given) | > 38.1
83 | CCOC(=O)N1CCN(C(=O)C(C)NC(=O)c2ccco2)CC1 (stereo not given) | 44.3 (≈ 137 µM)
84 | N#Cc1cc(C#N)c(SCC(=O)NCC2CCCO2)nc1N (stereo not given) | > 47.6
85 | N#CC1=C(N)Oc2cc(N)ccc2C1c1ccc(Cl)cc1 (stereo not given) | 3.4 (≈ 11.4 µM)
86 | COc1ccc(-c2ncncc2-c2ccc(OC)c(OC)c2)c(O)c1 | > 50.8
87 | Cc1ccc(C)c(OCCN2CCOCC2)c1 | 24.9 (≈ 106 µM)
88 | O=C(COC(=O)C1CC1)NCCc1ccccc1 | > 37.1
89 | NS(=O)(=O)c1ccc(CCNC(=O)c2ccc(Cl)s2)cc1 | 10.6 (≈ 30.7 µM)
90 | CC(C)C(=O)N=c1sc2cccc(F)c2n1C | 13.2 (≈ 52.3 µM)
91 | CCOc1ccc(NC(=S)Nc2cccc3ccccc23)cc1 | 2 (≈ 6.2 µM)
92 | CNC(=O)NC(=O)C(C)Oc1ccccc1F (stereo not given) | 34.9 (≈ 145 µM)
93 | O=C1CC(c2ccccc2)Cc2nc(NC3CC3)ncc21 (stereo not given) | 2.7 (≈ 9.67 µM)
94 | CC1SCC(=O)N(CC(=O)NCCc2ccccc2)C1=O (stereo not given) | > 46
95 | O=C(c1ccc(F)cc1)c1ccc(OCC(=O)N2CCOCC2)cc1 | > 51.5
96 | COC(=O)c1c(C)nc(C)c(C(=O)OC)c1-c1cccs1 | > 45.8

Row | Compound | solubility kinetic [µg/mL]
97 | Cc1c(O)c2ccccc2n(-c2ccccc2)c1=O | > 37.7
98 | COc1ccc(C)cc1NC(=O)C1CC1c1ccccc1 (stereo not given) | 4.7 (≈ 16.7 µM)
99 | CN1C(=O)c2ccccc2N(C)C1c1cccc(O)c1 (stereo not given) | 38.1 (≈ 142 µM)
100 | Cc1noc(C(=O)Nc2cccc(Cl)c2)c1Cl | 2 (≈ 7.38 µM)
101 | O=[N+]([O-])c1ccc(Cl)c(S(=O)(=O)/N=C(/Nc2cccnc2)c2ccccc2)c1 | > 62.5
102 | COc1cc(/C=C/C(=O)Nc2cccnc2)cc(OC)c1OC | 40.9 (≈ 130 µM)
103 | Cn1nccc1NC(=O)c1nccnc1C(=O)O | > 37.1
104 | CC(=O)N1c2ccccc2-c2nc3ccccc3n2C1C (stereo not given) | > 41.6
105 | Cl.O=C(CNCc1ccccc1)NC1C2CC3CC(C2)CC1C3 (stereo not given) | 50.2
106 | COc1ccc(C(=O)OCC(=O)N2CCc3ccccc32)cc1S(=O)(=O)N1CCOCC1 | 24.8 (≈ 53.9 µM)
107 | CCN(CC)C(=O)N[C@H]1C[C@@H]2c3cccc4[nH]cc(c34)C[C@H]2N(C)C1 | 14.1 (≈ 41.4 µM)
108 | Nc1nc(Cl)nc2c1ncn2[C@@H]1O[C@H](CO)[C@@H](O)[C@H]1O | > 45.3
109 | CC(C(=O)NCc1cccnc1)c1ccc([N+](=O)[O-])cc1 (stereo not given) | > 42.8
110 | Cc1cccc2cc(C#N)c(NCc3ccccc3)nc12 | 11.4 (≈ 41.7 µM)
111 | COc1ccc2nc(C)cc(Nc3cccc(C(=O)O)c3)c2c1 | 3.3 (≈ 10.7 µM)
112 | C=CCNC(=S)NNC(=O)c1ccncc1 | > 35.4
113 | Cc1cc(C)c(C)c(S(=O)(=O)NCC(=O)Nc2ccccc2F)c1C | 12.2 (≈ 33.5 µM)
114 | O=[N+]([O-])c1ccc2nc(NS(=O)(=O)c3ccccc3[N+](=O)[O-])sc2c1 | 55.7 (≈ 146 µM)
115 | N#Cc1ccsc1NC(=O)C1=COCCO1 | > 35.4
116 | CCC(CO)NCC#Cc1ccccc1.Cl (stereo not given) | > 36
117 | O=C(C1CC(=O)N(c2ccc(Cl)cc2)C1)N1CCOCC1 (stereo not given) | 40 (≈ 130 µM)
118 | O=C(Cc1cccc2ccccc12)NCC(=O)Nc1ccccc1F | 10.6 (≈ 31.5 µM)
119 | CCCCCCCNC(=O)c1cc(-c2ccncc2)nc2ccccc12 | 0.8 (≈ 2.3 µM)
120 | Nc1c(C(=O)N2CCCCC2)sc2nc3c(cc12)CCCC3 | 41.7 (≈ 132 µM)

Source: PubChem BioAssay AID1996
